From patent publication US8280710B2, “Method for determining thermal stability of collagen or collagen-like peptide” (University of Medicine and Dentistry of New Jersey, priority 2005, dated 2012)
Non-standard residues stand in square brackets, D forms with d. Residues, ends and D or L forms follow the SMILES beside them. No end group written: not given here. Hyp = O=C(O)[C@@H]1C[C@@H](O)CN1

Columns and labels:
[1] = for Tm^obs: peptide of Table 3, defined standard conditions; for experimentally observed Tm of Gly-Xaa1-Xaa2 tripeptide unit in a triple helix: host-guest peptide, (Gly-Pro-Hyp)8 host, c=1 mg/ml in phosphate-buffered saline, pH 7.0, heating rate 0.1° C./minute
Description: The propensity measurements for all 20 amino acid residues in the Xaa1 position in a Gly-Xaa1-Hyp context and all 20 amino acid residues in the Xaa2 position in a Gly-Pro-Xaa2 context were determined by measuring thermal stability of host-guest peptides (Persikov, et al. (2000) supra).
The Tm values of all host-guest peptides were measured under a set of standard conditions, with c=1 mg/ml in phosphate-buffered saline, pH 7.0, and with a heating rate average of 0.1° C./minute (Persikov, et al. (2004) supra).

[2] = Method for predicting global Tm of collagen peptides from amino acid sequence; settings: observed minus predicted, peptides of Table 3
Description: The global thermal stability of homotrimeric triple helical peptides with length of at least 6 tripeptide units and, in most cases, containing 10 tripeptide units was determined as follows.
For the total number of triplets n in a given peptide, the base Tm^0(n) for (Pro-Hyp-Gly) or (Pro-Pro-Gly)n was calculated from the length dependence (Equation 1), including any effect of blocking groups;
The melting temperature value was decreased for every triplet in the sequence that was not Gly-Pro-Hyp, subtracting a value of ΔTm^GXY (Table 1). The N-terminal and C-terminal tripeptide units were excluded from the calculation due to the staggering of the chains and the disorder for the peptide ends (Bella et al. (1994) supra; Li, et al. (1993) Biochemistry 32:7377-7387; Kramer, et al. (2001) J. Mol. Biol. 301:1191-1205).
The resulting value for the peptide melting temperature was adjusted using the ΔTm^int values for interactions between neighboring tripeptides (Table 2).
The method was formulated as follows.
To extrapolate the dependence of the Tm of the host peptides on peptide length, the experimental values for (Pro-Hyp-Gly)n and (Pro-Pro-Gly)n versus n, where n is the number of tripeptide units, were fit to the exponential decay function
[formula] where Tm^0(n) is defined as the base thermal stability of the repeating polytripeptide standard, Tm^max is the maximum melting temperature, and the constant n0 represents the length of the repeating peptide with Tm=0.

CC(C)[C@H](NC(=O)[C@@H]1CCCN1C(=O)CNC(=O)[C@H](C)NC(=O)[C@@H]1CCCN1C(=O)CNC(=O)[C@H](C)NC(=O)[C@@H]1CCCN1C(=O)CN)C(=O)NCC(=O)N1CCC[C@H]1C(=O)N[C@@H](C)C(=O)NCC(=O)N[C@@H](C)C(=O)N[C@@H](CCCNC(=N)N)C(=O)NCC(=O)N1CCC[C@H]1C(=O)N[C@@H](C)C(=O)NCC(=O)N1CCC[C@H]1C(=O)N1C[C@H](O)C[C@H]1C(=O)NCC(=O)N1CCC[C@H]1C(=O)N1C[C@H](O)C[C@H]1C(=O)NCC(=O)N1CCC[C@H]1C(=O)N1C[C@H](O)C[C@H]1C(=O)NCC(=O)N1CCC[C@H]1C(=O)N1C[C@H](O)C[C@H]1C(=O)NCC(=O)N[C@@H](Cc1ccc(O)cc1)C(=O)O [T1-892 unbl, GPA-GPA-GPV-GPA-GAR-GPA-(GPO)4-GY] (H-GPAGPAGPVGPAGARGPAGP[Hyp]GP[Hyp]GP[Hyp]GP[Hyp]GY-OH)
Tm^obs [1]: 20.6 °C
ΔTm [2]: −3.2 °C

Gly-Pro-Ala
decrease in stability relative to Gly-Pro-Hyp [1]: 6.4 °C
experimentally observed Tm of Gly-Xaa1-Xaa2 tripeptide unit in a triple helix [1]: 40.9 °C

Gly-Pro-Lys
experimentally observed Tm of Gly-Xaa1-Xaa2 tripeptide unit in a triple helix [1]: 36.8 °C

CC(=O)NCC(=O)N[C@@H](CCC(=O)O)C(=O)N[C@@H](CCCNC(=N)N)C(=O)NCC(=O)N[C@@H](CCC(=O)O)C(=O)N[C@@H](CCCNC(=N)N)C(=O)NCC(=O)N[C@@H](CCC(=O)O)C(=O)N[C@@H](CCCCN)C(=O)NCC(=O)N[C@@H](CCC(=O)O)C(=O)N[C@@H](CCCNC(=N)N)C(=O)NCC(=O)N[C@@H](CCC(=O)O)C(=O)N[C@@H](CCC(N)=O)C(=O)NCC(=O)N[C@@H](CCCNC(=N)N)C(=O)N[C@@H](CC(=O)O)C(=O)NCC(=O)N1CCC[C@H]1C(=O)N1C[C@H](O)C[C@H]1C(=O)NCC(=O)N1CCC[C@H]1C(=O)N1C[C@H](O)C[C@H]1C(=O)NCC(=O)N1CCC[C@H]1C(=O)N1C[C@H](O)C[C@H]1C(=O)NCC(=O)N1CCC[C@H]1C(=O)N1C[C@H](O)C[C@H]1C(=O)NCC(=O)N[C@H](C(N)=O)C(C)C [T7-2058, Ac-GER-GER-GEK-GER-GEQ-GRD-(GPO)4-GV-NH2] (Ac-GERGERGEKGERGEQGRDGP[Hyp]GP[Hyp]GP[Hyp]GP[Hyp]GV-NH2)
Tm^obs [1]: 23.2 °C

CC[C@H](C)[C@H](NC(=O)CNC(=O)[C@H](CC(C)C)NC(=O)[C@@H]1CCCN1C(=O)CNC(=O)[C@@H]1C[C@@H](O)CN1C(=O)[C@H](C)NC(=O)CNC(=O)[C@@H]1C[C@@H](O)CN1C(=O)[C@@H]1CCCN1C(=O)CNC(C)=O)C(=O)N[C@@H](C)C(=O)NCC(=O)N[C@H](C(=O)N[C@H](C(=O)NCC(=O)N[C@@H](C)C(=O)N[C@@H](CCCNC(=N)N)C(=O)NCC(=O)N[C@@H](CC(C)C)C(=O)N[C@@H](C)C(=O)NCC(=O)N1CCC[C@H]1C(=O)N1C[C@H](O)C[C@H]1C(=O)NCC(=O)N1CCC[C@H]1C(=O)N1C[C@H](O)C[C@H]1C(=O)NCC(=O)N1CCC[C@H]1C(=O)N1C[C@H](O)C[C@H]1C(=O)NCC(=O)N1CCC[C@H]1C(=O)N1C[C@H](O)C[C@H]1C(=O)NCC(=O)NCC(N)=O)[C@@H](C)O)[C@@H](C)CC [T3-772, Ac-GPO-GAO-GPL-GIA-GIT-GAR-GLA-(GPO)4-GG-NH2] (Ac-GP[Hyp]GA[Hyp]GPLGIAGITGARGLAGP[Hyp]GP[Hyp]GP[Hyp]GP[Hyp]GG-NH2)
Tm^obs [1]: <4 °C

Gly-Pro-Glu
experimentally observed Tm of Gly-Xaa1-Xaa2 tripeptide unit in a triple helix [1]: 39.7 °C

CC(=O)NCC(=O)N[C@@H](C)C(=O)N[C@@H](CCCNC(=N)N)C(=O)NCC(=O)N1CCC[C@H]1C(=O)N[C@@H](C)C(=O)NCC(=O)N1CCC[C@H]1C(=O)N[C@@H](CCC(N)=O)C(=O)NCC(=O)N1CCC[C@H]1C(=O)N[C@@H](CCCNC(=N)N)C(=O)NCC(=O)N[C@@H](CC(=O)O)C(=O)N[C@@H](CCCCN)C(=O)NCC(=O)N[C@@H](CCC(=O)O)C(=O)N[C@H](C(=O)NCC(=O)N1CCC[C@H]1C(=O)N1C[C@H](O)C[C@H]1C(=O)NCC(=O)N1CCC[C@H]1C(=O)N1C[C@H](O)C[C@H]1C(=O)NCC(=O)N1CCC[C@H]1C(=O)N1C[C@H](O)C[C@H]1C(=O)NCC(=O)N1CCC[C@H]1C(=O)N1C[C@H](O)C[C@H]1C(=O)NCC(=O)N[C@H](C(N)=O)C(C)C)[C@@H](C)O [T1-904, Ac-GAR-GPA-GPQ-GPR-GDK-GET-(GPO)4-GV-NH2] (Ac-GARGPAGPQGPRGDKGETGP[Hyp]GP[Hyp]GP[Hyp]GP[Hyp]GV-NH2)
Tm^obs [1]: 30.8 °C

Gly-Gly-Phe
experimentally observed Tm of Gly-Xaa1-Xaa2 tripeptide unit in a triple helix [1]: 19.7 °C

Gly-Pro-Ser
experimentally observed Tm of Gly-Xaa1-Xaa2 tripeptide unit in a triple helix [1]: 35.0 °C

Gly-Gly-Ala
experimentally observed Tm of Gly-Xaa1-Xaa2 tripeptide unit in a triple helix [1]: 26.0 °C

CC[C@H](C)[C@H](NC(=O)CNC(=O)[C@H](CO)NC(=O)[C@@H]1CCCN1C(=O)CNC(=O)[C@@H]1C[C@@H](O)CN1C(=O)[C@@H]1CCCN1C(=O)CNC(=O)[C@@H](NC(=O)[C@H](CCCNC(=N)N)NC(=O)CNC(=O)[C@H](C)NC(=O)[C@H](C)NC(=O)CNC(=O)[C@@H]1C[C@@H](O)CN1C(=O)[C@H](Cc1ccccc1)NC(=O)CNC(C)=O)[C@@H](C)O)C(=O)N[C@@H](CO)C(=O)NCC(=O)N1CCC[C@H]1C(=O)N1C[C@H](O)C[C@H]1C(=O)NCC(=O)N1CCC[C@H]1C(=O)N1C[C@H](O)C[C@H]1C(=O)NCC(=O)N1CCC[C@H]1C(=O)N1C[C@H](O)C[C@H]1C(=O)NCC(=O)N1CCC[C@H]1C(=O)N1C[C@H](O)C[C@H]1C(=O)NCC(=O)N[C@H](C(N)=O)C(C)C [T1A2-697, Ac-GFO-GAA-GRT-GPO-GPS-GIS-(GPO)4-GV-NH2] (Ac-GF[Hyp]GAAGRTGP[Hyp]GPSGISGP[Hyp]GP[Hyp]GP[Hyp]GP[Hyp]GV-NH2)
Tm^obs [1]: <4 °C

MBL: MBL peptide(s) of Table 3 containing Gly-Lys-Asp-Gly-Arg-Asp-Gly-Thr-Lys-Gly-Glu-Lys-Gly-Glu-Hyp; not said whether MBL 42-61 or 45-61 (GKDGRDGTKGEKGEP)
ΔTm [2]: higher than observed

Gly-Pro-[Hyp]
decrease in stability relative to Gly-Pro-Hyp [1]: 21 °C

Gly-Pro-Gln
experimentally observed Tm of Gly-Xaa1-Xaa2 tripeptide unit in a triple helix [1]: 41.3 °C

Gly-Pro-Pro
experimentally observed Tm of Gly-Xaa1-Xaa2 tripeptide unit in a triple helix [1]: 45.5 °C

CC(=O)NCC(=O)N1CCC[C@H]1C(=O)N1C[C@H](O)C[C@H]1C(=O)NCC(=O)N1CCC[C@H]1C(=O)N1C[C@H](O)C[C@H]1C(=O)NCC(=O)N1CCC[C@H]1C(=O)N1C[C@H](O)C[C@H]1C(=O)NCC(=O)N1CCC[C@H]1C(=O)N1C[C@H](O)C[C@H]1C(=O)NCC(=O)N1CCC[C@H]1C(=O)N[C@@H](C)C(=O)NCC(=O)N1CCC[C@H]1C(=O)N[C@@H](C)C(=O)NCC(=O)N1CCC[C@H]1C(=O)N[C@H](C(=O)NCC(=O)N1CCC[C@H]1C(=O)N[C@@H](C)C(=O)NCC(=O)N[C@@H](C)C(=O)N[C@@H](CCCNC(=N)N)C(=O)NCC(=O)N1CCC[C@H]1C(=O)N[C@@H](C)C(=O)NCC(=O)N[C@H](C(N)=O)C(C)C)C(C)C [T1-892r, Ac-(GPO)4-GPA-GPA-GPV-GPA-GAR-GPA-GV-NH2] (Ac-GP[Hyp]GP[Hyp]GP[Hyp]GP[Hyp]GPAGPAGPVGPAGARGPAGV-NH2)
ΔTm [2]: −2.2 °C

CC(=O)NCC(=O)N1CCC[C@H]1C(=O)N[C@@H](CCCNC(=N)N)C(=O)NCC(=O)N[C@@H](CC(N)=O)C(=O)N[C@@H](CCCNC(=N)N)C(=O)NCC(=O)N[C@@H](CCC(=O)O)C(=O)N[C@@H](CCCNC(=N)N)C(=O)NCC(=O)N[C@@H](CO)C(=O)N[C@@H](CCC(=O)O)C(=O)NCC(=O)N[C@@H](CO)C(=O)N1C[C@H](O)C[C@H]1C(=O)NCC(=O)N[C@@H](Cc1c[nH]cn1)C(=O)N1C[C@H](O)C[C@H]1C(=O)NCC(=O)N[C@@H](CCC(N)=O)C(=O)N1C[C@H](O)C[C@H]1C(=O)NCC(=O)N1CCC[C@H]1C(=O)N1C[C@H](O)C[C@H]1C(=O)NCC(=O)N1CCC[C@H]1C(=O)N1C[C@H](O)C[C@H]1C(=O)NCC(=O)N[C@@H](C)C(=O)N1C[C@H](O)C[C@H]1C(=O)NCC(=O)N[C@H](C(N)=O)C(C)C [T3-997, Ac-GPR-GNR-GER-GSE-GSO-GHO-GQO-GPO-GPO-GAO-GV-NH2] (Ac-GPRGNRGERGSEGS[Hyp]GH[Hyp]GQ[Hyp]GP[Hyp]GP[Hyp]GA[Hyp]GV-NH2)
Tm^obs [1]: <4 °C

Gly-Ala-[Hyp]
experimentally observed Tm of Gly-Xaa1-Xaa2 tripeptide unit in a triple helix [1]: 41.7 °C

Gly-Pro-Val
experimentally observed Tm of Gly-Xaa1-Xaa2 tripeptide unit in a triple helix [1]: 40.0 °C

Gly-Pro-Arg
decrease in stability relative to Gly-Pro-Hyp [1]: ~0 °C
experimentally observed Tm of Gly-Xaa1-Xaa2 tripeptide unit in a triple helix [1]: 47.2 °C

Gly-Pro-Gly
experimentally observed Tm of Gly-Xaa1-Xaa2 tripeptide unit in a triple helix [1]: 32.9 °C
